According to article PMC7017353, “Delineating the Molecular Basis of the Calmodulin–bMunc13-2 Interaction by Cross-Linking/Mass Spectrometry—Evidence for a Novel CaM Binding Motif in bMunc13-2” (Cells, 2020):
Where a SMILES comes first, the peptide text is derived from it.

Test system: recombinant CaM
Assay: Photoaffinity labeling (PAL)-based competition assay
Type: binding
Conditions: photoprobe segment-C-Bpa 5 µM, CaM 5 µM, 200 µM Ca2+, SDS-PAGE and MALDI-TOF-MS; for molar excess of competitor for complete suppression of photoadduct formation (full displacement of photoprobe): competitor 0–250 µM, 2 h RT; for suppression of photoadduct formation (in words): competitor up to 50-fold molar excess
Protocol: Photoreactive peptides were synthesized by Fmoc chemistry using the amino acid derivative Fmoc-para-benzoylphenylalanine (Bpa, Novabiochem). Photoaffinity labeling (PAL)-based competition experiments with recombinant CaM were performed and analyzed as described previously. Briefly, CaM (5 µM) and segment-C-Bpa (5 µM) or segment-CS-Bpa (5 µM) were incubated in 50 mM HEPES (pH 7.2), 150 mM KCl, 5 mM DTT for 2 h at RT in the dark with (200 µM Ca^2+) or without (2 mM EGTA) calcium, and in the presence of increasing concentrations (0–250 μM) of competitor peptides. Following UV irradiation, photoadduct formation was visualized and quantified by SDS-PAGE and linear matrix-assisted laser desorption/ionization–time-of-flight–mass spectrometry (MALDI-TOF-MS).

| Compound | molar excess of competitor for complete suppression of photoadduct formation (full displacement of photoprobe) [fold molar excess] | suppression of photoadduct formation (in words) |
| --- | --- | --- |
| CC[C@H](C)[C@H](NC(=O)[C@H](CS)NC(=O)[C@H](CCCCN)NC(=O)[C@H](CC(N)=O)NC(=O)[C@H](CC(C)C)NC(=O)[C@H](Cc1ccc(O)cc1)NC(=O)[C@@H](NC(=O)[C@@H](NC(=O)[C@H](CCC(=O)O)NC(=O)[C@H](C)NC(=O)[C@H](CS)NC(=O)[C@H](CC(=O)O)NC(=O)[C@H](CCC(N)=O)NC(=O)[C@H](CCC(=O)O)NC(=O)[C@H](CC(C)C)NC(=O)[C@H](CO)NC(=O)[C@H](CC(C)C)NC(=O)[C@H](CCCCN)NC(C)=O)[C@@H](C)O)[C@@H](C)CC)C(=O)N[C@@H](CC(N)=O)C(=O)N[C@@H](CC(N)=O)C(=O)N[C@@H](Cc1ccccc1)C(=O)N[C@@H](CCCCN)C(=O)N[C@@H](CC(N)=O)C(=O)N[C@H](C(=O)N[C@@H](CC(C)C)C(=O)N[C@@H](CCCNC(=N)N)C(=O)N[C@@H](CCC(=O)O)C(=O)N[C@@H](CCCCN)C(=O)N[C@@H](CCCNC(=N)N)C(=O)N[C@@H](CC(C)C)C(=O)N[C@@H](CCCNC(=N)N)C(=O)N[C@@H](CCC(N)=O)C(=O)N[C@@H](CCCCN)C(=O)N[C@@H](CCCCN)C(=O)N[C@@H](CC(C)C)C(=O)N[C@@H](CC(C)C)C(=O)N[C@@H](CCC(N)=O)C(=O)N[C@@H](CCC(=O)O)C(=O)N[C@@H](CC(C)C)C(=O)N[C@H](C(N)=O)C(C)C)C(C)C [Segment V709D] (Ac-KLSLEQDCAETIYLNKCINNFKNVLREKRLRQKKLLQELV-NH2; N-terminus and C-terminus assumed) | > 50 | – |
| 719CINNFKNVLREKRLRQKKLLQELVQTASHLSVED742 [segment-CL] | > 50 | could not suppress photoadduct formation |
| 719 CINNFKNVLREKRLRQKKLLQELV 742 [segment-CS] | > 50 | could not suppress photoadduct formation |
| 703KLSLEQVCAETIYLNKCINNDKNVLREKRLRQKKLLQELV742 [Segment F723D, segment-C variant with F723 exchanged to aspartic acid] | – | not able to displace segment-C-Bpa at all |
